Where two headings read alike, the source gives them in different places.

Experiment in all cases: biochemical
The target of assay [1] is T1, ZmDRIK1-R187-P492 (Zea mays, UniProt C0P4K9).
T1 construct: kinase domain, R187-P492
T1 sequence (C0P4K9 1-514): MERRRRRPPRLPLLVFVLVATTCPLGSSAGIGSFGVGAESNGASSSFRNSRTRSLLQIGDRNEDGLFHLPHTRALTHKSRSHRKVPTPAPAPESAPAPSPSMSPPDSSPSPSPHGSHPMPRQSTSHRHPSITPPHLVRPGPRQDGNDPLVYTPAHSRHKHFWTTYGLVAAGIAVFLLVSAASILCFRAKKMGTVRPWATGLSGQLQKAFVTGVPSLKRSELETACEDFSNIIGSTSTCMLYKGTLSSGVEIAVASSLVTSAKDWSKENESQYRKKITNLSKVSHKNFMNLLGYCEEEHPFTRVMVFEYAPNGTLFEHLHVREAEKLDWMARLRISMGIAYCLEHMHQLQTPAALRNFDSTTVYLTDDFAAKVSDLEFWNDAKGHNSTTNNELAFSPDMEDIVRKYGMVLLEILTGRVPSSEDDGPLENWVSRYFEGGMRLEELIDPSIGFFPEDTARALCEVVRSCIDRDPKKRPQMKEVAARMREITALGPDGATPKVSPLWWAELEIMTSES

Assay [2] concerns the target T2, ZmDRIK1-K217-S514 (Zea mays, UniProt C0P4K9).
T2 construct: kinase domain, K217-S514
T2 sequence (C0P4K9 1-514): T1 sequence (C0P4K9 1-514)

The target of assay [3] is T3, ZmDRIK1 (DROUGHT RESPONSIVE INACTIVE KINASE 1), kinase domain (Zea mays, UniProt C0P4K9).
T3 construct: gene ZEAMMB73_Zm00001d028770; ZmDRIK1-KD R187-S514 (kinase domain)
T3 sequence (C0P4K9 187-514): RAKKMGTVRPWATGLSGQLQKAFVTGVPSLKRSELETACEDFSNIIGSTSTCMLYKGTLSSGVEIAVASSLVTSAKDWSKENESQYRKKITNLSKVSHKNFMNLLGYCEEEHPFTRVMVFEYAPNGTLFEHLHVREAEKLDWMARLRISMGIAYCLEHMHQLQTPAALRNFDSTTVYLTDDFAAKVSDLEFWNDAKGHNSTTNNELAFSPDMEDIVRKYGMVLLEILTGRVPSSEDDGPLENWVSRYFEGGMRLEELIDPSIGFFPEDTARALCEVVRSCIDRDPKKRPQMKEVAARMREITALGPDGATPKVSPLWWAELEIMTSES

Assay [4] has as its target T4, ZmDRIK1-K217-P492 (Zea mays, UniProt C0P4K9).
T4 construct: kinase domain, K217-P492
T4 sequence (C0P4K9 1-514): T1 sequence (C0P4K9 1-514)

Where [5] appears, read: read-out: dTm B, DSF, Boltzmann fit, 0.1% DMSO.
Setting [6] is: read-out: dTm B, sheet ZmDRIK1-K217-S514;, DSF, Boltzmann fit, 0.1% DMSO.
Where [7] appears, read: read-out: dTm B, sheet ZmDRIK1-R187-S514;, DSF, Boltzmann fit, 0.1% DMSO.
Where [8] appears, read: read-out: dTm B, sheet ZmDRIK1-K217-P492;, DSF, Boltzmann fit, 0.1% DMSO.

As to `CO[C@H]1C[C@@H]2CC[C@@H](C)[C@@](O)(O2)C(=O)C(=O)N2CCCC[C@H]2C(=O)O[C@H]([C@H](C)C[C@@H]2CC[C@@H](OCCO)[C@H](OC)C2)CC(=O)[C@H](C)/C=C(\C)[C@@H](O)[C@@H](OC)C(=O)[C@H](C)C[C@H](C)/C=C/C=C/C=C/1C` [Everolimus (RAD001)], the ΔTm at 10 µM in assay [1] (setting [5]) was -0.526 °C; in assay [2] (setting [6]), -0.327 °C; in assay [3] (setting [7]) it was -0.644 °C; in assay [4] (setting [8]), -1.22 °C.
The like results for `CCN1/C(=C/C(C)=O)Sc2ccc(OC)cc21` [TG003] were, in that order, -0.291 °C, -0.33 °C, -0.488 °C and -1.11 °C.
Regarding `C[C@@H]1CN(CC(=O)Nc2ccc3c(c2)Cc2cccc(-c4cc(=O)cc(N5CCOCC5)o4)c2S3)C[C@H](C)O1` [KU-60019], the ΔTm at 10 µM was -0.366 °C in assay [1] (setting [5]), -0.426 °C in assay [2] (setting [6]), -1.17 °C in assay [3] (setting [7]) and -1.19 °C in assay [4] (setting [8]).
The like results for `Cc1cc(O)c2c(c1)C(=O)c1cccc(O)c1C2=O` [Chrysophanic Acid] were, in that order, -0.205 °C, -0.229 °C, -0.414 °C and -1.17 °C.
`Cc1cc(NC(=O)c2cccc(NC(=O)/C=C/CN(C)C)c2)ccc1Nc1nccc(-c2cccnc2)n1` [JNK-IN-8]: the ΔTm at 10 µM is -0.326 °C in assay [1] (setting [5]), -0.306 °C in assay [2] (setting [6]), -0.726 °C in assay [3] (setting [7]) and -1.16 °C in assay [4] (setting [8]).
The like results for `COCCOc1ccc2c(c1)ncn2-c1ccc2cccc(N3CCC(N)CC3)c2n1` [CP-673451] were, in that order, -0.00299 °C, 0.216 °C, -0.398 °C and 0.203 °C.
Regarding `COc1cc(Nc2ncc3c(n2)-c2ccc(Cl)cc2C(c2c(F)cccc2OC)=NC3)ccc1C(=O)O` [Alisertib (MLN8237)], the ΔTm at 10 µM in assay [1] (setting [5]) is -0.494 °C; in assay [2] (setting [6]) it was -0.528 °C; in assay [3] (setting [7]) it was -1.37 °C; in assay [4] (setting [8]) it was -1.1 °C.
For `N#C/C(=C(/N)Sc1ccc(N)cc1)c1ccccc1C(F)(F)F` [SL-327], the ΔTm at 10 µM is -0.157 °C in assay [1] (setting [5]), -0.356 °C in assay [2] (setting [6]), -1.09 °C in assay [3] (setting [7]) and -0.701 °C in assay [4] (setting [8]).
As for `CNC(=O)c1cc(Oc2ccc(NC(=O)Nc3cc(C(C)(C)C)nn3-c3ccc4ncccc4c3)c(F)c2)ccn1` [DCC-2036 (Rebastinib)], the ΔTm at 10 µM in assay [1] (setting [5]) was -0.261 °C; in assay [2] (setting [6]), -0.422 °C; in assay [3] (setting [7]), -1.41 °C; in assay [4] (setting [8]), -1.25 °C.
The like results for `C=CC(=O)Nc1ccc2ncnc(Nc3cccc(Br)c3)c2c1` [PD168393] were, in that order, 0.724 °C, 0.721 °C, -0.108 °C and -0.0923 °C.
The like results for `Cc1cc(Nc2cc(CN3CCOCC3)c3nc(C)c(Cc4ccc(Cl)cc4F)n3n2)n[nH]1` [LY2784544] were, in that order, -0.165 °C, -0.0976 °C, -0.894 °C and -0.85 °C.
With `Cc1ccccc1CN1C(=O)C2=C(CCN(Cc3ccccc3)C2)N2CCN=C12` [TIC10], the ΔTm at 10 µM in assay [1] (read-out: dTm B) is -0.155 °C; in assay [2] (read-out: dTm B) it was -0.395 °C; in assay [3] (read-out: dTm B), -0.768 °C; in assay [4] (read-out: dTm B), 0.685 °C.
With `Nc1ncnc2c1c(-c1cccc(OCc3ccccc3)c1)cn2[C@H]1C[C@@H](CN2CCC2)C1` [NVP-AEW541], the ΔTm at 10 µM in assay [1] (setting [5]) was -0.332 °C; in assay [2] (setting [6]), -0.366 °C; in assay [3] (setting [7]), -0.841 °C; in assay [4] (setting [8]), -1.08 °C.
As for `COc1ccc(Cl)c(Nc2nc3ccccc3nc2NS(=O)(=O)c2cccc(NC(=O)C(C)(C)N)c2)c1` [XL147], the ΔTm at 10 µM is -0.0333 °C in assay [1] (setting [5]), 0.807 °C in assay [2] (setting [6]), -0.972 °C in assay [3] (setting [7]) and 0.134 °C in assay [4] (setting [8]).
Regarding `CCS(=O)(=O)c1cccc(-c2cc(C(=O)NC3CCN(C)CC3)c(C)c3[nH]c4ncc(C)cc4c23)c1` [TAK-901], the ΔTm at 10 µM in assay [1] (setting [5]) is -0.0329 °C; in assay [2] (setting [6]), -0.0934 °C; in assay [3] (setting [7]), -0.544 °C; in assay [4] (setting [8]), -0.353 °C.
Take `N#CCNC(=O)c1ccc(-c2ccnc(Nc3ccc(N4CCOCC4)cc3)n2)cc1` [CYT387]: the ΔTm at 10 µM in assay [1] (setting [5]) is -0.227 °C; in assay [2] (setting [6]), -0.388 °C; in assay [3] (setting [7]), -0.664 °C; in assay [4] (setting [8]) it was -0.574 °C.
In the case of `CCc1ccc(C=C2SC(=S)NC2=O)cc1` [10058-F4], the ΔTm at 10 µM in assay [1] (setting [5]) is -0.741 °C; in assay [2] (setting [6]) it was -0.172 °C; in assay [3] (setting [7]), -1.27 °C; in assay [4] (setting [8]), -1.02 °C.
Take `CC(C)n1nc(-c2ccc3oc(N)nc3c2)c2c(N)ncnc21` [INK 128 (MLN0128)]: the ΔTm at 10 µM in assay [1] (setting [5]) is -0.315 °C; in assay [2] (setting [6]), -0.433 °C; in assay [3] (setting [7]), -0.628 °C; in assay [4] (setting [8]), -0.659 °C.
Turning to `CNC(=O)c1c(F)cccc1Nc1nc(Nc2cc3c(ccn3C(=O)CN(C)C)cc2OC)nc2[nH]ccc12` [GSK1838705A], the ΔTm at 10 µM in assay [1] (setting [5]) is -0.292 °C; in assay [2] (setting [6]), -0.398 °C; in assay [3] (setting [7]), -0.961 °C; in assay [4] (setting [8]), -0.578 °C.
In the case of `CCCS(=O)(=O)Nc1ccc(F)c(C(=O)c2c[nH]c3ncc(-c4ccc(Cl)cc4)cc23)c1F` [Vemurafenib (PLX4032)], the ΔTm at 10 µM in assay [1] (setting [5]) was -7.37 °C; in assay [2] (setting [6]), -0.89 °C; in assay [3] (setting [7]), -21.5 °C; in assay [4] (setting [8]) it was -0.0662 °C.
`Cc1[nH]c(/C=C2\C(=O)Nc3ccccc32)c(C)c1CCC(=O)O` [TSU-68 (SU6668)]: the ΔTm at 10 µM was -0.199 °C in assay [1] (setting [5]), -0.226 °C in assay [2] (setting [6]), -0.64 °C in assay [3] (setting [7]) and -1.14 °C in assay [4] (setting [8]).
As for `COc1ncc(-c2ccc3nccc(-c4ccnnc4)c3c2)cc1NS(=O)(=O)c1ccc(F)cc1F` [GSK2126458 (GSK458)], the ΔTm at 10 µM in assay [1] (setting [5]) was -0.322 °C; in assay [2] (setting [6]) it was -0.505 °C; in assay [3] (setting [7]), -0.808 °C; in assay [4] (setting [8]) it was -1.03 °C.
Regarding `Cn1cnc(N)c2ncnc1-2` [3-Methyladenine], the ΔTm at 10 µM in assay [1] (setting [5]) is -0.274 °C; in assay [2] (setting [6]), -0.375 °C; in assay [3] (setting [7]) it was -0.528 °C; in assay [4] (setting [8]), -0.621 °C.
As to `Nc1cc(C(F)(F)F)c(-c2cc(N3CCOCC3)nc(N3CCOCC3)n2)cn1` [BKM120 (NVP-BKM120)], the ΔTm at 10 µM in assay [1] (setting [5]) is -0.326 °C; in assay [2] (setting [6]) it was -0.33 °C; in assay [3] (setting [7]), -0.731 °C; in assay [4] (setting [8]) it was -1.39 °C.
As to `OCCn1cc(-c2cnc3nnn(Cc4ccc5ncccc5c4)c3n2)cn1` [PF-04217903], the ΔTm at 10 µM was -0.0503 °C in assay [1] (setting [5]), -0.0615 °C in assay [2] (setting [6]), -0.576 °C in assay [3] (setting [7]) and -0.909 °C in assay [4] (setting [8]).
The like results for `NC1(C(=O)N[C@@H](CCO)c2ccc(Cl)cc2)CCN(c2ncnc3[nH]ccc23)CC1` [AZD5363] were, in that order, -0.504 °C, -0.652 °C, -0.693 °C and -1.06 °C.
For `Cc1nc(NC(=O)N2CCC[C@H]2C(N)=O)sc1-c1ccnc(C(C)(C)C(F)(F)F)c1` [BYL719], the ΔTm at 10 µM in assay [1] (setting [5]) is -0.328 °C; in assay [2] (setting [6]), -0.465 °C; in assay [3] (setting [7]), -0.448 °C; in assay [4] (setting [8]), -0.718 °C.

The record behind these values is paper PMC7158045 (BMC Plant Biology, 2020).
